Experimental data: ChEMBL document CHEMBL1201862, “PubChem BioAssay data set” (2004)
Active and inactive are the calls of the source.

Tests used:
[1] = target: T1, RNA-binding protein pos-1 (Caenorhabditis elegans, UniProt G5EF15); test: inhibitors of POS-1/mex-3 RNA binding, dose response, biochemical, fluorescence polarization (AID 1964);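 also: purified POS-1 fused to maltose binding protein made in E. coli; potency of compounds blocking POS-1 binding to fluorescent RNA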
T1 sequence (G5EF15 whole entry): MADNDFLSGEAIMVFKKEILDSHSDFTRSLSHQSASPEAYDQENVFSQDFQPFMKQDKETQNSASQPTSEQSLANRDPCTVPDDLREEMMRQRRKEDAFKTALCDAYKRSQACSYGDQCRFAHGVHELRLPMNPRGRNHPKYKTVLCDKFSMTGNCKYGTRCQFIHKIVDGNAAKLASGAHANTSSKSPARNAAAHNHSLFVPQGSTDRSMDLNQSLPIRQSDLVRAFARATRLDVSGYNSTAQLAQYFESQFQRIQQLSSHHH

[2] = target: T2, Zinc finger protein mex-5 (Caenorhabditis elegans, UniProt Q9XUB2); test: MEX-5/TCR-2 RNA interaction inhibitors, dose response, biochemical, C. elegans, fluorescence polarization (AID 1960)
T2 sequence (Q9XUB2 whole entry): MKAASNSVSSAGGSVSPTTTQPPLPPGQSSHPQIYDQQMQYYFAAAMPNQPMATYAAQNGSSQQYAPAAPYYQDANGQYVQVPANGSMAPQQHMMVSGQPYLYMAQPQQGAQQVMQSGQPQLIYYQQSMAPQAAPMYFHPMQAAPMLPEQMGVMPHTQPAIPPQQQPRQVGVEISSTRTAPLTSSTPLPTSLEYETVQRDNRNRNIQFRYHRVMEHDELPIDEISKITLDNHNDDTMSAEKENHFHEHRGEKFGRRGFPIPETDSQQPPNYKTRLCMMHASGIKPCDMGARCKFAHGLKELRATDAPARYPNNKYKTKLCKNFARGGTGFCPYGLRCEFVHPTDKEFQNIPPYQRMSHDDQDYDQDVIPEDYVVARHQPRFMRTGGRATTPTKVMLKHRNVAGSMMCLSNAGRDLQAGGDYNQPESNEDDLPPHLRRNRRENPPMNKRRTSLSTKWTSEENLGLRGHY

[3] = target: Intestinal-type alkaline phosphatase (Homo sapiens, UniProt P09923); test: activation of human intestinal alkaline phosphatase – biochemical, dose response (AID 488873); assay type: functional
Sequence of Intestinal-type alkaline phosphatase (Homo sapiens, UniProt P09923) (P09923 whole entry): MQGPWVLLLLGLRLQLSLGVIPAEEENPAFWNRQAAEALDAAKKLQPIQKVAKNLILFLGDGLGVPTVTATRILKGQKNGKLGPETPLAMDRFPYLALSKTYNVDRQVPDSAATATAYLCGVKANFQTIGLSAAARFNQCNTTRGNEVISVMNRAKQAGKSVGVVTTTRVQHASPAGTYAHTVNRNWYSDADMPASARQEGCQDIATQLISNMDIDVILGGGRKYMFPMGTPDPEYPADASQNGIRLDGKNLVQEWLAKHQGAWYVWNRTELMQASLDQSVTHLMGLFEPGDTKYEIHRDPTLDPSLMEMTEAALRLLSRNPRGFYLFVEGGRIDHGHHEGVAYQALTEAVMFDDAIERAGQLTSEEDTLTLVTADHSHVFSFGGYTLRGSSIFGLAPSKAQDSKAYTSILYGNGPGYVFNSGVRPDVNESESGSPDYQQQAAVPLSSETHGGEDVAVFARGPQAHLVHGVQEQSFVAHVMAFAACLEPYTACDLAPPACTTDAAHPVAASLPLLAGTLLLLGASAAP

[4] = target: T3, Heat shock factor protein 1 (Mus musculus, UniProt P38532); test: HSF1 potentiators in luciferase reporter cells, confirmation, cell-based, NIH3T3, luminescence, dose retest (AID 435004); assay type: functional;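 also: stress induced by proteasome inhibitor MG132 added 30 min after compound; luciferase reporter driven by HSF1 response element in NIH3T3 cells; actives raise luminescence as potentiators of the MG132 stress response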
T3 sequence (P38532 whole entry): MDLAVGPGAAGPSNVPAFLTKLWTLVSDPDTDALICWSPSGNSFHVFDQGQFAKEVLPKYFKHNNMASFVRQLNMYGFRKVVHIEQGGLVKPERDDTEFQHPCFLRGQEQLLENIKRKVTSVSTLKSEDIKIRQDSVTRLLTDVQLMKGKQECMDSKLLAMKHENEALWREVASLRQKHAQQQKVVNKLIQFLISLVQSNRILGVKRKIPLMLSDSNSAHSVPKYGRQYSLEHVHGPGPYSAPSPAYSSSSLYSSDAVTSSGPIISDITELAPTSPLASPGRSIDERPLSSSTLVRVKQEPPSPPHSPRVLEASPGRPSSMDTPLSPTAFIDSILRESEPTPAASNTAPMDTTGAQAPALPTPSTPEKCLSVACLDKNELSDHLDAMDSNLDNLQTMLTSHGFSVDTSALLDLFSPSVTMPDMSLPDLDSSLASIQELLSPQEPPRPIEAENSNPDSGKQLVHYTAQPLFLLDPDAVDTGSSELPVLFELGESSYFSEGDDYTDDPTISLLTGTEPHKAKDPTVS

[5] = target: Intestinal-type alkaline phosphatase (Mus musculus, UniProt P24822); test: mouse intestinal alkaline phosphatase activators, dose response, biochemical, luminescence, uHTS hits (AID 488783); assay type: functional
Sequence of Intestinal-type alkaline phosphatase (Mus musculus, UniProt P24822) (P24822 whole entry): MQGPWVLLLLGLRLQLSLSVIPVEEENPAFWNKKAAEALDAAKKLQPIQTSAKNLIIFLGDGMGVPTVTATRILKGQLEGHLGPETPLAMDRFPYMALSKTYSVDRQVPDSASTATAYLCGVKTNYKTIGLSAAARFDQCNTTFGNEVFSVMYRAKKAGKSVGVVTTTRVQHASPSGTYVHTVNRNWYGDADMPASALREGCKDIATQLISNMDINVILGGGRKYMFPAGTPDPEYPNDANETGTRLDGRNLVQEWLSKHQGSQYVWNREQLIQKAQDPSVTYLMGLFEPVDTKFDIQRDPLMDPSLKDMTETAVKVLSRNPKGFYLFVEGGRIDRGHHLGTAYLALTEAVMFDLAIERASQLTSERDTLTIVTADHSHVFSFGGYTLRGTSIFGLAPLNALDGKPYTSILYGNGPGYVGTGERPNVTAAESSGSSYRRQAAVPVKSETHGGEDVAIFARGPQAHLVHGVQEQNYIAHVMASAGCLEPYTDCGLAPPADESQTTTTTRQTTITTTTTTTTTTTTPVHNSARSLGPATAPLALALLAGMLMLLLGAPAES

[6] = target: T4, Alkaline phosphatase, tissue-nonspecific isozyme (Homo sapiens, UniProt P05186); test: TNAP enzyme activators, dose response, selectivity assay for mouse IAP activator project, biochemical, TNAP isozyme, mouse IAP uHTS hits (AID 488880); assay type: functional
T4 sequence (P05186 whole entry): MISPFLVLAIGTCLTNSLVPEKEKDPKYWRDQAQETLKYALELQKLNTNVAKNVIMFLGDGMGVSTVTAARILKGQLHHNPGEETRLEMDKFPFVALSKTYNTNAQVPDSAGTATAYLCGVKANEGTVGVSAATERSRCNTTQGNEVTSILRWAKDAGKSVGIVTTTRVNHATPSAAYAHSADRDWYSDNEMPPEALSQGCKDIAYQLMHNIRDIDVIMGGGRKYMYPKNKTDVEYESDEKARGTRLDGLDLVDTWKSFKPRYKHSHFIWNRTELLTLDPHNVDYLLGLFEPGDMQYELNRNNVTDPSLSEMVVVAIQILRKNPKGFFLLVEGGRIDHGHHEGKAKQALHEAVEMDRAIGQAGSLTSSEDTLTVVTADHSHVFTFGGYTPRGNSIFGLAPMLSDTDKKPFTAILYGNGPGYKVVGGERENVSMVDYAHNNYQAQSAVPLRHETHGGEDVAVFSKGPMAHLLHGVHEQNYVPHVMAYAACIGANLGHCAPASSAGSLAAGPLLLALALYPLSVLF

[7] = target: T5, Rac GTPase-activating protein 1 (Homo sapiens, UniProt Q9H0H5); test: MgcRacGAP GTPase-activating activity inhibitors, confirmation, biochemical, ADP Hunter fluorescence, primary and confirmatory (AID 624330); assay type: functional
T5 sequence (Q9H0H5 whole entry): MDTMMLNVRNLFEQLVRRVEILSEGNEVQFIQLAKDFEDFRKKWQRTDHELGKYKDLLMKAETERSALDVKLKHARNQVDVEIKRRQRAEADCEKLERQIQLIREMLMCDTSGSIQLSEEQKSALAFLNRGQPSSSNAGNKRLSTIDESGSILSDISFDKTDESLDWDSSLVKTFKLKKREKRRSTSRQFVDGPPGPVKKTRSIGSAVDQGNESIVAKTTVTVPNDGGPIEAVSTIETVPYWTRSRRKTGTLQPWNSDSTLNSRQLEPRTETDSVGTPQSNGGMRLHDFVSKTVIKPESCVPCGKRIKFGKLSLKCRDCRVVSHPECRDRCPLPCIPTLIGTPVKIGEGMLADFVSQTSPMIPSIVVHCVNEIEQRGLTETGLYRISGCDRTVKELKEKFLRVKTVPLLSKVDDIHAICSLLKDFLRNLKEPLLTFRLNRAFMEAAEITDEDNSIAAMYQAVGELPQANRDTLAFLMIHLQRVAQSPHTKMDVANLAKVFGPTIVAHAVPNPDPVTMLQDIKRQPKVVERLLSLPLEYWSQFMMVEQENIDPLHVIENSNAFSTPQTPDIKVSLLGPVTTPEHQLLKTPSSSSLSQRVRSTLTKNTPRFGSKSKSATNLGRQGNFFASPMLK

[8] = target: T6, Nucleotide-binding oligomerization domain-containing protein 1 (Homo sapiens, UniProt Q9Y239); test: SAR analysis of compounds that inhibit NOD1 - Set 3. [Related pubchem assays (depositor defined):AID1566, AID1575, AID1578, AID1849, AID1852, AID2333, AID2335, AID2466]; assay type: functional
T6 sequence (Q9Y239 whole entry): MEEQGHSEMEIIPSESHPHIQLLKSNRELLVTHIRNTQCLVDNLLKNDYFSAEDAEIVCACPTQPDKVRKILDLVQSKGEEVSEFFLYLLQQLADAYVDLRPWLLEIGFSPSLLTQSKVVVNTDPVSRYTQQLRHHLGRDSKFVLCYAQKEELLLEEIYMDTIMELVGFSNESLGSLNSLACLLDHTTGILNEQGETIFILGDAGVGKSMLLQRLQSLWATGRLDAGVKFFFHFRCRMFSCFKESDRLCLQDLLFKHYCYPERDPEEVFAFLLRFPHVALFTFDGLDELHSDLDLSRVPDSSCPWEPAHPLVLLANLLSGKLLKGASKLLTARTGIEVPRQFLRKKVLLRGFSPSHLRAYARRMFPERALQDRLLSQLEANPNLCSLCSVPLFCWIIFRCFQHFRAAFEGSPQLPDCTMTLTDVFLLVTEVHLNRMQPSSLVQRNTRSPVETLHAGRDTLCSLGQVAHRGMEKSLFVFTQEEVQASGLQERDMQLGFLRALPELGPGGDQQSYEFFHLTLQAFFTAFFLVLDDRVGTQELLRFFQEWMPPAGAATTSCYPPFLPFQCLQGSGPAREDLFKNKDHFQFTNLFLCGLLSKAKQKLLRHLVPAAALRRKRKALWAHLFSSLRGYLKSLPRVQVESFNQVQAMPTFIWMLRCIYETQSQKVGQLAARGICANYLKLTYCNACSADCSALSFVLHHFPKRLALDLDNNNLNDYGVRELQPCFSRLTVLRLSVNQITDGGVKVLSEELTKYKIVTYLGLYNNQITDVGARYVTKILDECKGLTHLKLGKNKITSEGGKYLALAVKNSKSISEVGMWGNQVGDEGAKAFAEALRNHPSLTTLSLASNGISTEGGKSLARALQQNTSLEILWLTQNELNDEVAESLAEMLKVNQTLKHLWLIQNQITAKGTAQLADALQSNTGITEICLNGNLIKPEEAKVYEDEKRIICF

[9] = target: Tumor necrosis factor (Homo sapiens, UniProt P01375); test: TNFa-triggered NF-kB activation inhibitors, SAR follow-up, cell-based, set 3 (AID 2801); assay type: functional
Sequence of Tumor necrosis factor (P01375 whole entry): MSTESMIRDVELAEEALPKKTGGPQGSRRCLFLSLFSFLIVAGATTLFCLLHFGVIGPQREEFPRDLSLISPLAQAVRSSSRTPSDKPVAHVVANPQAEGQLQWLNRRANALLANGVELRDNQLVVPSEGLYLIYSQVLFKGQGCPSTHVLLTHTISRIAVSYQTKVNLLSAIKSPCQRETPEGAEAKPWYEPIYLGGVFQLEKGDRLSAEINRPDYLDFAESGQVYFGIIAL

[10] = system: HEK293; test: SAR analysis of compounds that are cytotoxic to HEK293 - Set 3. [Related pubchem assays (depositor defined):AID1575, AID1578, AID1848, AID1849, AID2001, AID2333, AID2334, AID2335, AID2337, AID2469]; assay type: functional, cell-based; conditions: Homo sapiens
[11] = target: Nucleotide-binding oligomerization domain-containing protein 2 (Homo sapiens, UniProt Q9HC29); test: NOD2 signaling inhibitors, analog potency, SAR follow-up, cell-based, set 3 (AID 2799); assay type: functional
Sequence of Nucleotide-binding oligomerization domain-containing protein 2 (Q9HC29 whole entry, the tested form may be a part): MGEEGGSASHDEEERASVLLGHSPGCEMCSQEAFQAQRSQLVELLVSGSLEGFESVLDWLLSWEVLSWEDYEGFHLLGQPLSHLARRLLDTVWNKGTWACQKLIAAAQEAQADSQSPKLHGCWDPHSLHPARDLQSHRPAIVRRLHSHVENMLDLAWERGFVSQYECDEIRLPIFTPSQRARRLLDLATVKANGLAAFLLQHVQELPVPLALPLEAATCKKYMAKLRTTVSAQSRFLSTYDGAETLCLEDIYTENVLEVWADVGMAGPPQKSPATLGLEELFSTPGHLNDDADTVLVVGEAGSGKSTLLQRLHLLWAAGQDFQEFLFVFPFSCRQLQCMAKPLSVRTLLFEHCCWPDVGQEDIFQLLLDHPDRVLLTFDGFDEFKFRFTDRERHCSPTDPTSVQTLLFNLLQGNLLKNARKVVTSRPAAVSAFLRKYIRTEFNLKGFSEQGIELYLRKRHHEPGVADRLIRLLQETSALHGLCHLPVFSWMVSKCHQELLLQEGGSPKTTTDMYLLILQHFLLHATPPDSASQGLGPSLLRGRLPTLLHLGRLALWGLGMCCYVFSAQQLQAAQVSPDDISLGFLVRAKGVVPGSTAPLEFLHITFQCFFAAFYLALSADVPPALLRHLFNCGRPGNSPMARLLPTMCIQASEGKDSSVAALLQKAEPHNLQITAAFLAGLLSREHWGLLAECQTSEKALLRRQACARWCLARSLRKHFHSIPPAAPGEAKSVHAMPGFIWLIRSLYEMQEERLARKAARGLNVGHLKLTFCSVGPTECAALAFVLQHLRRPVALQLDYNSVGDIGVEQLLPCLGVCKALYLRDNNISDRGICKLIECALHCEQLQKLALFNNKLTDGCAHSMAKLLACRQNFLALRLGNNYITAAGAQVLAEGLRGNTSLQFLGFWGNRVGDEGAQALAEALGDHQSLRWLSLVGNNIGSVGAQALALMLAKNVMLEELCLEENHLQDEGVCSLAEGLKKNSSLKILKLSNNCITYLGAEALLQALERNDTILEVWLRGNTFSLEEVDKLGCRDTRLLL

[12] = target: T7, G-protein coupled receptor 55 (Homo sapiens, UniProt Q9Y2T6); test: GPR55 antagonists blocking LPI-driven arrestin recruitment, primary screen, imaging, U2OS, beta-arrestin-GFP, LPI agonist (AID 2013); assay type: functional;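 also: antagonist potency measured as reduced agonist-driven arrestin aggregation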
T7 sequence (Q9Y2T6 whole entry): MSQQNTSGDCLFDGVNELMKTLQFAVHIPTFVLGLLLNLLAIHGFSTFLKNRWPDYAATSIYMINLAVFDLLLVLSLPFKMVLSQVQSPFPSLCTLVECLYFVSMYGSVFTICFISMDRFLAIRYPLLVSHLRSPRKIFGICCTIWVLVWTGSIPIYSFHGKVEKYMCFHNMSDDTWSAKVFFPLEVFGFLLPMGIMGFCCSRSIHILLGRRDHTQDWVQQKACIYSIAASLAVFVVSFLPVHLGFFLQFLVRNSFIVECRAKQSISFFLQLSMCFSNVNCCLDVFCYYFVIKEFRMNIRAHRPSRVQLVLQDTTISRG

[13] = target: T8, Cannabinoid receptor 1 (Homo sapiens, UniProt P21554); test: SAR analysis of antagonists of the Cannabinoid Receptor 1 using an Image-Based Assay - Set 2. [Related pubchem assays (depositor defined):AID2013, AID2026]; assay type: functional
T8 sequence (P21554 whole entry): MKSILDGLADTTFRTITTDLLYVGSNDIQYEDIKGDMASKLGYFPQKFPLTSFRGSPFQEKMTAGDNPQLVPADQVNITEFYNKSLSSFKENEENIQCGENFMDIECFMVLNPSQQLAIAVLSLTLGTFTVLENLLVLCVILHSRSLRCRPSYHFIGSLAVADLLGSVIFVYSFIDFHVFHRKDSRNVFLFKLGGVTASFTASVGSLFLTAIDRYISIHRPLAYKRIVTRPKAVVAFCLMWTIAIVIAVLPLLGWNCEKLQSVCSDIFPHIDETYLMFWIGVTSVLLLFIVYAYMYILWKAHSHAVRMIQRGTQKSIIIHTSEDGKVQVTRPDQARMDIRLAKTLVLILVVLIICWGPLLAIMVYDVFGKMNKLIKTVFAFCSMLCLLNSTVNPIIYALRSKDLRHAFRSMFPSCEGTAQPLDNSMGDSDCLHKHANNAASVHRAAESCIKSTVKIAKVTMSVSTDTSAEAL

[14] = target: T9, G-protein coupled receptor 35 (Homo sapiens, UniProt Q9HC97); test: SAR analysis of Agonists of the GPR35 Receptor using an Image-Based Assay - Set 2. [Related pubchem assays (depositor defined):AID2013, AID2026]; assay type: functional
T9 sequence (Q9HC97 whole entry): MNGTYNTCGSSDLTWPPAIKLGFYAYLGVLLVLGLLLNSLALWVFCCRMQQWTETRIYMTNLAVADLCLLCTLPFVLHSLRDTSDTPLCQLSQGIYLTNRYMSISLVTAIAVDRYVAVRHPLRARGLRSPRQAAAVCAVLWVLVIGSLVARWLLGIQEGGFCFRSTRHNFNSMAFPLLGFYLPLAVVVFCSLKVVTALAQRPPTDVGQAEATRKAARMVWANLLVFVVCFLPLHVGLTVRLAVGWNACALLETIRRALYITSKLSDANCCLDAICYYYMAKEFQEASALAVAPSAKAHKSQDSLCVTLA

[15] = target: T10, Cannabinoid receptor 2 (Homo sapiens, UniProt P34972); test: SAR analysis of antagonists of the Cannabinoid Receptor 2 using an Image-Based Assay. [Related pubchem assays (depositor defined):AID2013, AID2026]; assay type: functional
T10 sequence (P34972 whole entry): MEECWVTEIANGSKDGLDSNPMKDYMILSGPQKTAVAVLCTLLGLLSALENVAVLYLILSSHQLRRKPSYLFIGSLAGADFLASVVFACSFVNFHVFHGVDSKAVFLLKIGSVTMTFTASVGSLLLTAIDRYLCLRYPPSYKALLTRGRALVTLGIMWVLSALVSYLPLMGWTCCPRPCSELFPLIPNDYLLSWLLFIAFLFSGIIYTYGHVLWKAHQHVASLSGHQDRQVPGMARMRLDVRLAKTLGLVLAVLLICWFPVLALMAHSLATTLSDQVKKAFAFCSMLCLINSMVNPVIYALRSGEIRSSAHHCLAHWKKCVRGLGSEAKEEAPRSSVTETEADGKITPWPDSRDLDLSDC

[16] = target: T8, Cannabinoid receptor 1; test: SAR analysis of agonists of the Cannabinoid Receptor 1 using an Image-Based Assay - Set 2. [Related pubchem assays (depositor defined):AID2013, AID2026]; assay type: functional
[17] = target: T9, G-protein coupled receptor 35; test: SAR analysis of Antagonists of the GPR35 Receptor using an Image-Based Assay - Set 3. [Related pubchem assays (depositor defined):AID2013, AID2026]; assay type: functional
[18] = target: T7, G-protein coupled receptor 55; test: GPR55 antagonist potency of analogs, SAR follow-up, imaging, U2OS, beta-arrestin-GFP, LPI agonist, set 2 (AID 2820); assay type: functional
[19] = target: T10, Cannabinoid receptor 2; test: SAR analysis of agonists of the Cannabinoid Receptor 2 using an Image-Based Assay. [Related pubchem assays (depositor defined):AID2013, AID2026]; assay type: functional

Cc1cc(O)nc(N/N=C/c2ccc(O)c(O)c2)n1
EC50 [1]: 99.3 µM (active) | EC50 [2]: 125 µM (active) | EC50 [3]: 66.2 µM (active) | EC50 [4]: > 260 µM (inactive) | EC50 [5]: 58.7 µM (active) | EC50 [6]: 56.1 µM (active) | IC50 [7]: 21.4 µM (active)

COc1ccc(-c2cc(N)n(S(=O)(=O)c3cccc([N+](=O)[O-])c3)n2)cc1OC
IC50 [8]: > 20 µM (inactive) | IC50 [9]: > 20 µM (inactive) | IC50 [10]: > 20 µM (inactive) | IC50 [11]: > 20 µM (inactive)

COc1ccc(-c2c(-c3ccc(O)cc3O)n[nH]c2C(F)(F)F)cc1
IC50 [12]: 1.8 µM (active) | IC50 [13]: 8.82 µM (active) | EC50 [14]: > 32 µM (inactive) | IC50 [15]: > 32 µM (inactive) | EC50 [16]: > 32 µM (inactive) | IC50 [17]: > 32 µM (inactive) | IC50 [18]: 1.06 µM (active) | EC50 [19]: 30.2 µM (inactive)
